The text below walks through data of US7163940B2, “Pyrazolopyridinyl pyrimidine therapeutic compounds” (SmithKline Beecham Corporation, priority 2000, dated 2007).

Each structure is given as a SMILES string. Where only a bound is given, the exact number is not on record here.

System in the first data set: not given
Test: not given
Conditions: not given
Turning to `CN(C)Cc1cc(-c2c(-c3ccc(F)cc3)nn3c(Cl)cccc23)nc(NC2CCCC2)n1` [Example 50, 4-[7-Chloro-2-(4-fluorophenyl)pyrazolo[1,5-α]pyridin-3-yl]-N-cyclopentyl-6-[(dimethylamino)methyl]-2-pyrimidinamine], the melting point (usually the temperature, or range, at which the solid turns liquid) lay within 68 to 75 °C.

The next data set concerns HSV-1. Put plainly: HSV-1 replication in infected Vero 76 cells, viral DNA hybridization capture assay. Format: cell-based. As to conditions: HSV-1, Vero 76 cells, MOI=0.001, 40–48 hours incubation. Here is the method:
Vero 76 cells were maintained in MEM with Earle's salts, L-glutamine, 8% FBS (Hyclone, A-1111-L) and 100 units/mL Penicillin-100 μg/mL Streptomycin. For assay conditions, FBS was reduced to 2%. Cells are seeded into 96-well tissue culture plates at a density of 5×10^4 cells/well after being incubated for 45 min at 37° C. in the presence of HSV-1 or HSV-2 (MOI=0.001). Test compounds are added to the wells and the plates are incubated at 37° C. for 40–48 hours. Cell lysates are prepared as follows: media was removed and replaced with 150 μL/well 0.2 N NaOH with 1% Igepal CA 630 or NP-40. Plates were incubated up to 14 days at room temperature in a humidified chamber to prevent evaporation. • (b) Preparation of Detection DNA.
For the detection probe, a gel-purified, digoxigenin-labeled, […] PCR fragment of the HSV UL-15 sequence was utilized. PCR conditions included 0.5 μM primers, 180 μM dTP, 20 μM dUTP-digoxigenin (Boehringer Mannheim 1558706), 200 μM each of dATP, dCTP, and dGTP, 1×PCR Buffer II (Perkin Elmer), 2.5 mM MgCl2, 0.025 units/μL of AmpliTaq Gold polymerase (Perkin Elmer), and 5 ng of gel-purified HSV DNA per 100 μL. Extension conditions were 10 min at 95° C., followed by 30 cycles of 95° C. for 1 min, 55° C. for 30 sec, and 72° C. for 2 min. The amplification was completed with a 10-min incubation at 72° C. Primers were selected to amplify a 728 bp probe spanning a section of the HSV1 UL15 open reading frame (nucleotides 249–977). Single-stranded transcripts were purified with Promega M13 Wizard kits. The final product was mixed 1:1 with a mixture of 6 M GuSCN, 100 mM EDTA and 200 μg/mL herring sperm DNA and stored at 4° C. • (c) Preparation of Capture Plates.
The capture DNA plasmid (HSV UL13 region in pUC) was linearized by cutting with Xba I, denatured for 15 min at 95° C. and diluted immediately into Reacti-Bind DNA Coating Solution (Pierce, 17250, diluted 1:1 with TE buffer, pH 8) at 1 ng/μL 75 μL/well were added to Corning (#3922 or 9690) white 96-well plates and incubated at room temperature for at least 4 hrs before washing twice with 300 μL/well 0.2×SSC/0.05% Tween-20 (SSC/T buffer). The plates were then incubated overnight at room temperature with 150 μL/well 0.2 N NaOH, 1% IGEPAL and 10 μg/mL herring sperm DNA. • (d) Hybridization.
Twenty-seven (27) μL of cell lysate was combined with 45 μL of hybridization solution (final concentration: 3M GuSCN, 50 mM EDTA, 100 μg/ml salmon sperm DNA, 5× Denhardt's solution, 0.25×APE, and 5 ng of the digoxigenin-labeled detection probe). APE is 1.5 M NH4-acetate, 0.15 M ammonium phosphate, and 5 mM EDTA adjusted to pH 6.0. Mineral oil (50 μL) was added to prevent evaporation. The hybridization plates were incubated at 95° C. for 10 minutes to denature the DNA, then incubated at 42° C. overnight. The wells were washed 6× with 300 μL/well SSC/T buffer then incubated with 75 μL/well anti-digoxigenin-HRP-conjugated antibody (Boehringer Mannheim 1207733, 1:5000 in TE) for 30 min at room temperature. The wells were washed 6× with 300 μL/well with PBS/0.05% Tween-20 before 75 μL/well SuperSignal LBA substrate (Pierce) was added. The plates were incubated at room temperature for 30 minutes and chemiluminescence was measured in a Wallac Victor reader. • e) Results.
The following results were obtained for HSV-1.
For the compound `CCCCNc1nccc(-c2c(-c3ccc(F)cc3)nn3c(NCCC)cccc23)n1` [Example 55, 3-[2-(Butylamino)-4-pyrimidinyl]-2-(4-fluorophenyl)-N-propylpyrazolo[1,5-α]pyridin-7-amine], the IC50 (in general, the concentration at which inhibition is half-maximal) amounted to 1200 nM. This counts as single-digit micromolar.

Still in this data set, the particulars now being: Human alphaherpesvirus 1, Vero 76, HSV-1, Vero 76 cells, MOI=0.001, 40–48 hours incubation.
Turning to `CN1CCCC1CCNc1cccc2c(-c3ccncc3)c(-c3ccc(F)cc3)nn12` (stereo not drawn) [Example 57, N-[2-(4-Fluorophenyl)-3-(4-pyridinyl)pyrazolo[1,5-α]pyridin-7-yl]-N-[2-(1-methyl-2-pyrrolidinyl)ethyl]amine], the IC50 was 700 nM. Compound `CCCCNc1nccc(-c2c(-c3ccc(F)cc3)nn3c(NCCCC)cccc23)n1` [Example 3, N-Butyl-3-[2-(butylamino)-4-pyrimidinyl]-2-(4-fluorophenyl)pyrazolo-[1,5-α]pyridin-7-amine] registered an IC50 of 500 nM.

Consider `CN(C)Cc1cc(-c2c(-c3ccc(F)cc3)nn3c(Cl)cccc23)nc(NC2CCCC2)n1` [Example 50, 4-[7-Chloro-2-(4-fluorophenyl)pyrazolo[1,5-α]pyridin-3-yl]-N-cyclopentyl-6-[(dimethylamino)methyl]-2-pyrimidinamine], for which the IC50 was 5000 nM. This IC50 lies about 10-fold higher than the previous one. `CN(C)c1nccc(-c2c(-c3ccc(F)cc3)nn3c(N4CCCC4)cccc23)n1` [Example 32, 4-[2-(4-Fluorophenyl)-7-(1-pyrrolidinyl)pyrazolo[1,5-α]pyridin-3-yl]-N,N-dimethyl-2-pyrimidinamine] displayed an IC50 of 5000 nM. Still for that read-out and setting: as for `O=C(NC1CCCC1)c1cc(-c2c(-c3ccc(F)cc3)nn3c(Cl)cccc23)nc(NC2CCCC2)n1` [Example 74, 6-[7-Chloro-2-(4-fluorophenyl)pyrazolo[1,5-α]pyridin-3-yl]-N-cyclopentyl-2-(cyclopentylamino)pyrimidine-4-carboxamide], the figure is > 20000 nM; as for `Fc1ccc(-c2nn3c(Cl)cccc3c2-c2ccnc(NC3CCCC3)n2)cc1` [Example 26, 4-[7-Chloro-2-(4-fluorophenyl)pyrazolo[1,5-α]pyridin-3-yl]-N-cyclopentyl-2-pyrimidinamine], 1500 nM; as for `NCCNc1cccc2c(-c3cc(-c4ccccc4)nc(NC4CCCC4)n3)c(-c3ccc(F)cc3)nn12` [Example 20, N′-[3-[2-(Cyclopentylamino)-6-phenyl-4-pyrimidinyl]-2-(4-fluorophenyl)pyrazolo[1,5-α]pyridin-7-yl]-1,2-ethanediamine], 3000 nM. On the same count and under the same terms, the same measure for `Nc1cccc2c(-c3ccnc(NC4CCCC4)n3)c(-c3ccc(F)cc3)nn12` [Example 21, 3-[2-(Cyclopentylamino)-4-pyrimidinyl]-2-(4-fluorophenyl)pyrazolo[1,5-α]pyridin-7-amine]: 1000 nM. Same read-out and setting: the same measure for `CN(CC(=O)O)c1nccc(-c2c(-c3ccc(F)cc3)nn3c(NC4CCCC4)cccc23)n1` [Example 18, [{4-[7-(Cyclopentylamino)-2-(4-fluorophenyl)pyrazolo[1,5-α]pyridin-3-yl]-2-pyrimidinyl}(methyl)amino]acetic acid]: 20000 nM. In the case of `CCCCNc1cccc2c(-c3ccnc(OCC(F)(F)F)n3)c(-c3ccc(F)cc3)nn12` [Example 68, N-Butyl-2-(4-fluorophenyl)-3-[2-(2,2,2-trifluoroethoxy)pyrimidin-4-yl]pyrazolo[1,5-α]pyridin-7-amine], the IC50 is > 20000 nM. On the same count and under the same terms, the same measure for `CCCCNc1cccc2c(-c3ccnc(NCCN4CCOCC4)n3)c(-c3ccc(F)cc3)nn12` [Example 45, N-Butyl-2-(4-fluorophenyl)-3-(2-{[2-(4-morpholinyl)ethyl]amino}-4-pyrimidinyl)pyrazolo[1,5-α]pyridin-7-amine]: 5000 nM. Consider `Fc1ccc(-c2nn3c(N4CCCC4)cccc3c2-c2ccnc(N3CCCC3)n2)cc1` [Example 69, 2-(4-Fluorophenyl)-7-pyrrolidin-1-yl-3-(2-pyrrolidin-1-ylpyrimidin-4-yl)pyrazolo[1,5-α]pyridine], for which the IC50 was found to be 4200 nM. For `Fc1ccc(-c2nn3c(NC4CCCC4)cccc3c2-c2cc(-c3ccccc3)nc(NC3CCCC3)n2)cc1` [Example 82, N-Cyclopentyl-3-[2-(cyclopentylamino)-6-phenylpyrimidin-4-yl]-2-(4-fluorophenyl)pyrazolo[1,5-α]pyridin-7-amine], the IC50 is > 20000 nM.

Consider `Fc1ccc(-c2nn3c(Br)cccc3c2-c2ccncc2)cc1` [Example 61, 7-Bromo-2-(4-fluorophenyl)-3-pyridin-4-ylpyrazolo[1,5-α]pyridine], for which the IC50 was > 20000 nM. Same read-out and setting: the same measure for `Fc1ccc(-c2nn3c(NC4CCCC4)cccc3c2-c2ccnc(NC3CCCC3)c2)cc1` [Example 29, N-Cyclopentyl-3-[2-(cyclopentylamino)-4-pyridinyl]-2-(4-fluorophenyl)pyrazolo[1,5-α]pyridin-7-amine]: 300 nM. Still for that read-out and setting: the same measure for `Fc1ccc(-c2nn3c(NC4CCCC4)cccc3c2-c2cc(COC3CCCCO3)nc(NC3CCCC3)n2)cc1` (stereo not drawn) [Example 16, N-Cyclopentyl-3-{2-(cyclopentylamino)-6-[(tetrahydro-2H-pyran-2-yloxy)methyl]-4-pyrimidinyl}-2-(4-fluorophenyl)pyrazolo[1,5-α]pyridin-7-amine]: 40000 nM; for `Cc1cnc(NC2CCCC2)nc1-c1c(-c2ccc(F)cc2)nn2c(NC3CCCC3)cccc12` [Example 53, N-Cyclopentyl-3-[2-(cyclopentylamino)-5-methyl-4-pyrimidinyl]-2-(4-fluorophenyl)pyrazolo[1,5-α]pyridin-7-amine]: 1000 nM; for `CCCCNc1nccc(-c2c(-c3ccc(F)cc3)nn3c(NCCN4CCOCC4)cccc23)n1` [Example 47, 3-[2-(Butylamino)-4-pyrimidinyl]-2-(4-fluorophenyl)-N-[2-(4-morpholinyl)ethyl]pyrazolo[1,5-α]pyridin-7-amine]: 400 nM.

In turn, `CCCCNc1cccc2c(-c3ccnc(NCc4ccccn4)n3)c(-c3ccc(F)cc3)nn12` [Example 43, N-Butyl-2-(4-fluorophenyl)-3-{2-[(2-pyridinylmethyl)amino]-4-pyrimidinyl}pyrazolo[1,5-α]pyridin-7-amine] returned an IC50 of 3000 nM. Still for that read-out and setting: as for `COc1ccc(Nc2cccc3c(-c4ccnc(NC5CCCC5)n4)c(-c4ccc(F)cc4)nn23)cc1` [Example 23, 3-[2-(Cyclopentylamino)-4-pyrimidinyl]-2-(4-fluorophenyl)-N-(4-methoxyphenyl)pyrazo[1,5-α]pyridin-7-amine], the figure is 1000 nM.
